# Tests used:
# Assay in all cases: relative viability (nuclei count vs DMSO), 5 days (fraction); higher = more cells survive
# 201T = tested on: 201T
# In short: (§1)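 For relative viability, nuclei counts in treated wells were divided by those in vehicle wells. Lung cancer cell lines had been pin-tool dosed in 1536-well plates the day after seeding and cultured for 5 days, then fixed and stained in one step (final 0.05% Triton X-100, 1% formaldehyde, 1 ug/ml Hoechst) and imaged at 4×. Doses were one drug alone or a fixed anchor-drug dose plus five library-drug doses (not always all listed) in √10 steps, and values are duplicate-plate medians.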
# COR-L 105 = tested on: COR-L 105
# In short: as §1
# COR-L23 = tested on: COR-L23
# In short: as §1
# EKVX = tested on: EKVX
# In short: as §1
# EPLC-272H = tested on: EPLC-272H
# In short: as §1
# H3255 = tested on: H3255
# In short: as §1
# HCC-15 = tested on: HCC-15
# In short: as §1
# HCC-827 = tested on: HCC-827
# In short: as §1
# LCLC-97TM1 = tested on: LCLC-97TM1
# In short: as §1
# NCI-H1395 = tested on: NCI-H1395
# In short: as §1
# NCI-H1650 = tested on: NCI-H1650
# In short: as §1
# NCI-H1651 = tested on: NCI-H1651
# In short: as §1
# NCI-H1792 = tested on: NCI-H1792
# In short: as §1
# NCI-H1915 = tested on: NCI-H1915
# In short: as §1
# NCI-H2023 = tested on: NCI-H2023
# In short: as §1
# NCI-H322M = tested on: NCI-H322M
# In short: as §1
# NCI-H358 = tested on: NCI-H358
# In short: as §1
# NCI-H460 = tested on: NCI-H460
# In short: as §1
# NCI-H520 = tested on: NCI-H520
# In short: as §1
# NCI-H596 = tested on: NCI-H596
# In short: as §1
# NCI-H647 = tested on: NCI-H647
# In short: as §1
# SK-MES-1 = tested on: SK-MES-1
# In short: as §1
# SW 900 = tested on: SW 900
# In short: as §1
smiles,measurement,setting,value
C=C1C(=O)O[C@@H](CCCCCCCC)[C@@H]1C(=O)O [C-75] + Cc1nc(Nc2ncc(C(=O)Nc3c(C)cccc3Cl)s2)cc(N2CCN(CCO)CC2)n1 [Dasatinib] (partner 0.075 µM),relative viability,201T; first compound 0.08 µM,0.612
same,relative viability,201T; first compound 0.253 µM,0.707
same,relative viability,201T; first compound 0.8 µM,0.568
same,relative viability,201T; first compound 2.53 µM,0.511
same,relative viability,201T; first compound 8 µM,0.56
same,relative viability,COR-L 105; first compound 0.08 µM,0.401
same,relative viability,COR-L 105; first compound 0.253 µM,0.243
same,relative viability,COR-L 105; first compound 0.8 µM,0.358
same,relative viability,COR-L 105; first compound 2.53 µM,0.338
same,relative viability,COR-L 105; first compound 8 µM,0.303
same,relative viability,COR-L23; first compound 0.08 µM,0.518
same,relative viability,COR-L23; first compound 0.253 µM,0.532
same,relative viability,COR-L23; first compound 0.8 µM,0.489
same,relative viability,COR-L23; first compound 2.53 µM,0.328
same,relative viability,COR-L23; first compound 8 µM,0.48
same,relative viability,EKVX; first compound 0.08 µM,0.535
same,relative viability,EKVX; first compound 0.253 µM,0.584
same,relative viability,EKVX; first compound 0.8 µM,0.564
same,relative viability,EKVX; first compound 8 µM,0.481
same,relative viability,EPLC-272H; first compound 0.08 µM,0.412
same,relative viability,EPLC-272H; first compound 0.253 µM,0.292
same,relative viability,EPLC-272H; first compound 0.8 µM,0.351
same,relative viability,EPLC-272H; first compound 2.53 µM,0.33
same,relative viability,EPLC-272H; first compound 8 µM,0.381
same,relative viability,H3255; first compound 0.08 µM,0.382
same,relative viability,H3255; first compound 0.253 µM,0.371
same,relative viability,H3255; first compound 0.8 µM,0.337
same,relative viability,H3255; first compound 2.53 µM,0.327
same,relative viability,H3255; first compound 8 µM,0.437
same,relative viability,HCC-15; first compound 0.08 µM,0.644
same,relative viability,HCC-15; first compound 0.253 µM,0.571
same,relative viability,HCC-15; first compound 0.8 µM,0.602
same,relative viability,HCC-15; first compound 2.53 µM,0.498
same,relative viability,HCC-15; first compound 8 µM,0.528
same,relative viability,HCC-827; first compound 0.08 µM,0.28
same,relative viability,HCC-827; first compound 0.253 µM,0.356
same,relative viability,HCC-827; first compound 0.8 µM,0.301
same,relative viability,HCC-827; first compound 2.53 µM,0.221
same,relative viability,HCC-827; first compound 8 µM,0.347
same,relative viability,LCLC-97TM1; first compound 0.08 µM,0.799
same,relative viability,LCLC-97TM1; first compound 0.253 µM,0.807
same,relative viability,LCLC-97TM1; first compound 0.8 µM,0.883
same,relative viability,LCLC-97TM1; first compound 2.53 µM,0.704
same,relative viability,LCLC-97TM1; first compound 8 µM,0.874
same,relative viability,NCI-H1395; first compound 0.08 µM,0.396
same,relative viability,NCI-H1395; first compound 0.253 µM,0.388
same,relative viability,NCI-H1395; first compound 0.8 µM,0.42
same,relative viability,NCI-H1395; first compound 2.53 µM,0.407
same,relative viability,NCI-H1395; first compound 8 µM,0.477
same,relative viability,NCI-H1650; first compound 0.08 µM,0.334
same,relative viability,NCI-H1650; first compound 0.253 µM,0.359
same,relative viability,NCI-H1650; first compound 2.53 µM,0.31
same,relative viability,NCI-H1650; first compound 8 µM,0.305
same,relative viability,NCI-H1651; first compound 0.08 µM,0.484
same,relative viability,NCI-H1651; first compound 0.253 µM,0.339
same,relative viability,NCI-H1651; first compound 0.8 µM,0.364
same,relative viability,NCI-H1651; first compound 2.53 µM,0.362
same,relative viability,NCI-H1651; first compound 8 µM,0.413
same,relative viability,NCI-H1792; first compound 0.08 µM,0.788
same,relative viability,NCI-H1792; first compound 0.253 µM,0.623
same,relative viability,NCI-H1792; first compound 0.8 µM,0.724
same,relative viability,NCI-H1792; first compound 2.53 µM,0.503
same,relative viability,NCI-H1792; first compound 8 µM,0.692
same,relative viability,NCI-H1915; first compound 0.08 µM,0.343
same,relative viability,NCI-H1915; first compound 0.253 µM,0.304
same,relative viability,NCI-H1915; first compound 0.8 µM,0.311
same,relative viability,NCI-H1915; first compound 2.53 µM,0.289
same,relative viability,NCI-H1915; first compound 8 µM,0.383
same,relative viability,NCI-H2023; first compound 0.08 µM,0.639
same,relative viability,NCI-H2023; first compound 0.253 µM,0.471
same,relative viability,NCI-H2023; first compound 0.8 µM,0.458
same,relative viability,NCI-H2023; first compound 2.53 µM,0.425
same,relative viability,NCI-H2023; first compound 8 µM,0.472
same,relative viability,NCI-H322M; first compound 0.08 µM,0.241
same,relative viability,NCI-H322M; first compound 0.253 µM,0.244
same,relative viability,NCI-H322M; first compound 0.8 µM,0.272
same,relative viability,NCI-H322M; first compound 2.53 µM,0.198
same,relative viability,NCI-H322M; first compound 8 µM,0.313
same,relative viability,NCI-H358; first compound 0.08 µM,0.181
same,relative viability,NCI-H358; first compound 0.253 µM,0.13
same,relative viability,NCI-H358; first compound 0.8 µM,0.157
same,relative viability,NCI-H358; first compound 2.53 µM,0.151
same,relative viability,NCI-H358; first compound 8 µM,0.143
same,relative viability,NCI-H460; first compound 0.08 µM,0.592
same,relative viability,NCI-H460; first compound 0.253 µM,0.364
same,relative viability,NCI-H460; first compound 0.8 µM,0.415
same,relative viability,NCI-H460; first compound 2.53 µM,0.258
same,relative viability,NCI-H460; first compound 8 µM,0.383
same,relative viability,NCI-H520; first compound 0.08 µM,0.188
same,relative viability,NCI-H520; first compound 0.253 µM,0.206
same,relative viability,NCI-H520; first compound 0.8 µM,0.206
same,relative viability,NCI-H520; first compound 2.53 µM,0.182
same,relative viability,NCI-H520; first compound 8 µM,0.179
same,relative viability,NCI-H596; first compound 0.08 µM,0.764
same,relative viability,NCI-H596; first compound 0.253 µM,0.669
same,relative viability,NCI-H596; first compound 0.8 µM,0.6
same,relative viability,NCI-H596; first compound 2.53 µM,0.446
same,relative viability,NCI-H596; first compound 8 µM,0.616
same,relative viability,NCI-H647; first compound 0.08 µM,0.227
same,relative viability,NCI-H647; first compound 0.253 µM,0.114
same,relative viability,NCI-H647; first compound 0.8 µM,0.172
same,relative viability,NCI-H647; first compound 2.53 µM,0.143
same,relative viability,NCI-H647; first compound 8 µM,0.219
same,relative viability,SK-MES-1; first compound 0.08 µM,0.357
same,relative viability,SK-MES-1; first compound 0.253 µM,0.286
same,relative viability,SK-MES-1; first compound 0.8 µM,0.319
same,relative viability,SK-MES-1; first compound 2.53 µM,0.332
same,relative viability,SK-MES-1; first compound 8 µM,0.336
same,relative viability,SW 900; first compound 0.08 µM,0.531
same,relative viability,SW 900; first compound 0.253 µM,0.796
same,relative viability,SW 900; first compound 0.8 µM,0.829
same,relative viability,SW 900; first compound 2.53 µM,0.548
same,relative viability,SW 900; first compound 8 µM,0.449

# Source: the supplement of paper PMC10307832
